Laboratory results published in ChEMBL document CHEMBL2424546, “Synthesis, transformation and biological evaluation of 2,3-secotriterpene acetylhydrazones and their derivatives” (Eur J Med Chem, 2013).

Legend:
[1] = tested on: Vesicular stomatitis Indiana virus; experiment: Antiviral activity against vesicular stomatitis virus Indiana infected in pig PEK cells assessed as inhibition of virus replication after 48 hrs by MTT assay; format: functional, organism-based
[2] = Cytotoxicity against pig PEK cells after 48 hrs by MTT assay; format: cell-based, Sus scrofa
[3] = Cytotoxicity against human TE-32 cells after 72 hrs ny MTT assay; format: cell-based; details: RD
[4] = Therapeutic index, ratio of IC50 for pig PEK cells to EC50 for vesicular stomatitis virus Indiana infected in pig PEK cells; format: cell-based; details: read-out: Ratio IC50/EC50
A549 = experiment: Cytotoxicity against human A549 cells after 72 hrs ny MTT assay; format: cell-based; details: A549, 72 h
[5] = Cytotoxicity against human MS cells after 72 hrs ny MTT assay; format: cell-based
RD [6] = experiment: Induction of apoptosis in human RD cells assessed as early apoptotic cells at 10.9 uM after 6 hrs by annexinV-FITC/propidium iodide staining-based flow cytometry (reference value: 1.21%); format: cell-based
[7] = Induction of apoptosis in human RD cells assessed as viable cells at 10.9 uM after 6 hrs by annexinV-FITC/propidium iodide staining-based flow cytometry (reference value: 96.85%); format: cell-based; details: read-out: Activity
RD [8] = experiment: Induction of apoptosis in human RD cells at 10.9 uM after 6 hrs by annexinV-FITC/propidium iodide staining-based flow cytometry relative to control; format: cell-based
RD [9] = experiment: Induction of apoptosis in human RD cells assessed as late apoptotic/necrotic cells at 10.9 uM after 6 hrs by annexinV-FITC/propidium iodide staining-based flow cytometry (reference value: 1.20%); format: cell-based
RD [10] = experiment: Induction of apoptosis in human RD cells assessed as damaged cells at 10.9 uM after 6 hrs by annexinV-FITC/propidium iodide staining-based flow cytometry (reference value: 0.84%); format: cell-based
RD [11] = experiment: Induction of apoptosis in human RD cells assessed as damaged cells at 4.5 uM after 6 hrs by annexinV-FITC/propidium iodide staining-based flow cytometry (reference value: 0.84%); format: cell-based
RD [12] = experiment: Induction of apoptosis in human RD cells assessed as early apoptotic cells at 4.5 uM after 6 hrs by annexinV-FITC/propidium iodide staining-based flow cytometry (reference value: 1.21%); format: cell-based
[13] = Induction of apoptosis in human RD cells assessed as viable cells at 4.5 uM after 6 hrs by annexinV-FITC/propidium iodide staining-based flow cytometry (reference value: 96.85%); format: cell-based; details: read-out: Activity
RD [14] = experiment: Induction of apoptosis in human RD cells assessed as late apoptotic/necrotic cells at 4.5 uM after 6 hrs by annexinV-FITC/propidium iodide staining-based flow cytometry (reference value: 1.20%); format: cell-based
[15] = Vesicular stomatitis Indiana virus, PEK, 48 h, read-out: EC50

**Q.** What does the source list for `C=C(C)[C@@H]1CC[C@]2(C(=O)OC)CC[C@]3(C)[C@H](CC[C@@H]4[C@@](C)(CC#N)[C@H](C(C)(C)[C@@H]5OC(C)=NN5C(C)=O)CC[C@]43C)[C@@H]12`?
**A.** EC50 [1, 15]: 0.34 µM; Activity [2]: Toxic; IC50 [3]: > 200 µM; selectivity ratio [4]: 5; IC50 (A549): 133 µM; IC50 [5]: 110 µM

**Q.** For `C=C(C)[C@@H]1CC[C@]2(C(=O)OC)CC[C@]3(C)[C@H](CC[C@@H]4[C@@](C)(CC#N)[C@H](C(C)(C)[C@H]5OC(C)=NN5C(C)=O)CC[C@]43C)[C@@H]12`, which Activity (RD [6]) is on record?
**A.** Its Activity is 3.83%.

**Q.** What about the viability at 6 h, 10.9 µM [7] of the same compound?
**A.** The viability at 6 h, 10.9 µM was 92.5%.

**Q.** And the “fold change (FC)” value (RD [8])?
**A.** Its value is 3.

**Q.** And the EC50 [1, 15]?
**A.** The EC50 was 0.62 µM.

**Q.** And the Activity [2]?
**A.** The Activity was “Toxic”.

**Q.** What about the IC50 [3] of the same compound?
**A.** Its IC50 is 10.9 µM.

**Q.** What about the selectivity ratio [4] of the same compound?
**A.** The selectivity ratio was 3.

**Q.** What about the IC50 (A549) of the same compound?
**A.** Its IC50 is 18.6 µM.

**Q.** And the Activity (RD [9])?
**A.** The Activity was 2.21%.

**Q.** And the Activity (RD [10])?
**A.** The Activity was 1.51%.

**Q.** What about the IC50 [5] of the same compound?
**A.** Its IC50 is 5.84 µM.

**Q.** For `C=C(C)[C@@H]1CC[C@]2(C(=O)O)CC[C@]3(C)[C@H](CC[C@@H]4[C@@]5(C)CC[C@H](O)C(C)(C)[C@@H]5CC[C@]43C)[C@@H]12` [BETULINIC ACID], which EC50 [1, 15] is on record?
**A.** The EC50 was 160 µM.

**Q.** What about the IC50 [3] of the same compound?
**A.** Its IC50 is 23.9 µM.

**Q.** What about the selectivity ratio [4] of the same compound?
**A.** Its selectivity ratio is 0.07.

**Q.** And the IC50 (A549)?
**A.** Its IC50 is 44 µM.

**Q.** And the IC50 [5]?
**A.** Its IC50 is 16 µM.

**Q.** With `C=C(C)[C@@H]1CC[C@]2(C(=O)OC)CC[C@]3(C)[C@H](CC[C@@H]4[C@@](C)(CC#N)[C@H](C(C)(C)/C=N/N(C(C)=O)C(C)=O)CC[C@]43C)[C@@H]12` as the compound, how does the EC50 ([1]; pek) read?
**A.** Its EC50 is “Not Active”.

**Q.** What about the selectivity ratio [4] of the same compound?
**A.** The selectivity ratio was 2.

**Q.** Which results are given for `CC(=O)N1N=C(C)O[C@@H]1C(C)(C)[C@@H]1CC[C@]2(C)[C@H](CC[C@@H]3[C@H]4[C@H]5OC[C@@]4(CCC5(C)C)CC[C@]32C)[C@@]1(C)CC#N`?
**A.** EC50 ([1]; pek): Not Active; IC50 [3]: 82.2 µM; IC50 (A549): 147 µM; IC50 [5]: 11.5 µM

**Q.** Which EC50 [1, 15] does the source give for `COC(=O)[C@@]1(C)CC[C@]2(C)CC[C@]3(C)C(=CC(=O)[C@@H]4[C@@](C)(CC#N)[C@H](C(C)(C)/C=N/NC(C)=O)CC[C@]43C)[C@@H]2C1` here?
**A.** Its EC50 is 18.4 µM.

**Q.** What about the selectivity ratio [4] of the same compound?
**A.** Its selectivity ratio is 2.

**Q.** Which EC50 ([1]; pek) does the source give for `C=C(C)[C@@H]1CC[C@]2(C(=O)NC(C)C)CC[C@]3(C)[C@H](CC[C@@H]4[C@@](C)(CC#N)[C@H](C(C)(C)/C=N/NC(C)=O)CC[C@]43C)[C@@H]12` here?
**A.** The EC50 was “Not Active”.

**Q.** What does the source list for `CC(=O)N1N=C(C)O[C@H]1C(C)(C)[C@@H]1CC[C@]2(C)[C@H](CC[C@@H]3[C@H]4[C@H]5OC[C@@]4(CCC5(C)C)CC[C@]32C)[C@@]1(C)CC#N`?
**A.** EC50 ([1]; pek): Not Active; IC50 [3]: 85 µM; IC50 (A549): 95.5 µM; IC50 [5]: 40.3 µM

**Q.** What does the source list for `C=C(C)[C@@H]1CC[C@]2(C(=O)OC)CC[C@]3(C)[C@H](CC[C@@H]4[C@@](C)(CC#N)[C@H](C(C)(C)/C=N/NC(C)=O)CC[C@]43C)[C@@H]12`?
**A.** EC50 [1, 15]: 1.58 µM; selectivity ratio [4]: 37

**Q.** Which EC50 [1, 15] does the source give for `CC(=O)N(/N=C/C(C)(C)[C@@H]1CC[C@]2(C)[C@H](CC[C@@H]3[C@H]4[C@H]5OC[C@@]4(CCC5(C)C)CC[C@]32C)[C@@]1(C)CC#N)C(C)=O` here?
**A.** Its EC50 is 15.9 µM.

**Q.** What about the selectivity ratio [4] of the same compound?
**A.** Its selectivity ratio is 8.

**Q.** For `C=C(C)[C@@H]1CC[C@]2(C(=O)NCCC(=O)OCC)CC[C@]3(C)[C@H](CC[C@@H]4[C@@](C)(CC#N)[C@H](C(C)(C)/C=N/NC(C)=O)CC[C@]43C)[C@@H]12`, which EC50 ([1]; pek) is on record?
**A.** The EC50 was “Not Active”.

**Q.** With `CC[C@@]1(O)C(=O)OCc2c1cc1n(c2=O)Cc2cc3ccccc3nc2-1` [CAMPTOTHECIN] as the compound, how does the Activity (RD [11]) read?
**A.** The Activity was 0.67%.

**Q.** And the Activity (RD [12])?
**A.** Its Activity is 4.08%.

**Q.** What about the viability at 6 h, 4.5 µM [13] of the same compound?
**A.** Its viability at 6 h, 4.5 µM is 92.2%.

**Q.** And the Activity (RD [14])?
**A.** The Activity was 3.1%.

**Q.** And the IC50 [3]?
**A.** Its IC50 is 4.47 µM.

**Q.** What about the IC50 (A549) of the same compound?
**A.** Its IC50 is 37.1 µM.

**Q.** And the IC50 [5]?
**A.** Its IC50 is 0.23 µM.

**Q.** For `COC(=O)[C@@]1(C)CC[C@]2(C)CC[C@]3(C)C(=CC(=O)[C@@H]4[C@@](C)(CC#N)[C@H](C(C)(C)[C@H]5OC(C)=NN5C(C)=O)CC[C@]43C)[C@@H]2C1`, which IC50 [3] is on record?
**A.** The IC50 was 166 µM.

**Q.** What about the IC50 (A549) of the same compound?
**A.** Its IC50 is 133 µM.

**Q.** What about the IC50 [5] of the same compound?
**A.** Its IC50 is 88.7 µM.

**Q.** For `CC(=O)N/N=C/C(C)(C)[C@@H]1CC[C@]2(C)[C@H](CC[C@@H]3[C@H]4[C@H]5OC[C@@]4(CCC5(C)C)CC[C@]32C)[C@@]1(C)CC#N`, which EC50 [1, 15] is on record?
**A.** The EC50 was 0.41 µM.

**Q.** What about the selectivity ratio [4] of the same compound?
**A.** The selectivity ratio was 149.

**Q.** With `COC(=O)[C@@]1(C)CC[C@]2(C)CC[C@]3(C)C(=CC(=O)[C@@H]4[C@@](C)(CC#N)[C@H](C(C)(C)[C@@H]5OC(C)=NN5C(C)=O)CC[C@]43C)[C@@H]2C1` as the compound, how does the IC50 [3] read?
**A.** Its IC50 is greater than 200 µM.

**Q.** And the IC50 (A549)?
**A.** The IC50 was greater than 200 µM.

**Q.** What about the IC50 [5] of the same compound?
**A.** Its IC50 is 71.2 µM.
